EC50 and IC50 data for 2 compounds are collected here from US12384775B2, “Pyrimid-2-yl-pyrazole compounds as IRAK inhibitors” (Rigel Pharmaceuticals, Inc., priority 2022, dated 2025).

SMILES strings stand for the structures.

One assay deals with T1, IRAK4 (Homo sapiens, UniProt Q9NWZ3).
T1 construct: purchased Signalchem I12-10G-20
T1 sequence (Q9NWZ3 1-460): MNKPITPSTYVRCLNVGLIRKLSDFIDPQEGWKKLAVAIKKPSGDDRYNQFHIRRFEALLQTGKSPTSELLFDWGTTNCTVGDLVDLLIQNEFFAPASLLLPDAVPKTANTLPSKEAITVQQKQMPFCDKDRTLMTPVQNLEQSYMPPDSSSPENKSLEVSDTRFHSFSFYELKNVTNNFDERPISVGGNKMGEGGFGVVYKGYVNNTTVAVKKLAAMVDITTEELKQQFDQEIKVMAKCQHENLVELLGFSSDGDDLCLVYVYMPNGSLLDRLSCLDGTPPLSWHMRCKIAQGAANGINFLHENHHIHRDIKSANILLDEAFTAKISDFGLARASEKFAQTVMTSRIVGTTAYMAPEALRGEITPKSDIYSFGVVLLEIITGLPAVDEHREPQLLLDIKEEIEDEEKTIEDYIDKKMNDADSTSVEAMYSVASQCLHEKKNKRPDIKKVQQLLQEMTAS
The assay is described as follows: IRAK4 Z'-LYTE assay. The note with it: for IC50: n = 1. It is filed as biochemical. The procedure:
• Bar-coded Corning, low volume NBS, black 384-well plate (Corning Cat. #4514) • Test Compounds: The Test Compounds are screened in 1% DMSO (final) in the well. For 10 point titrations, 3-fold serial dilutions are conducted from 10 µM. • Peptide/Kinase Mixture: The 2×IRAK4/Ser/Thr 07 mixture is prepared in 50 mM HEPES pH 7.5, 0.01% BRIJ-35, 10 mM MnCl2, 1 mM EGTA, 2 mM DTT, 0.02% NaN3. • ATP Solution: All ATP Solutions are diluted to a 4× working concentration in Kinase Buffer (50 mM HEPES pH 7.5, 0.01% BRIJ-35, 10 mM MgCl2, 1 mM EGTA). ATP Km apparent is previously determined using a Z-LYTE® assay. • Development Reagent Solution: The Development Reagent is diluted 1:45000 in Development Buffer. General Method • 1. 100 nL—100× Test Compound in 100% DMSO • 2. […]—Kinase buffer • 3. 5 μL—2× Peptide/Kinase Mixture • 4. 2.5 μL—4×ATP Solution
The final 10 μL Kinase Reaction consists of 3.45-63.6 ng IRAK4 and 2 μM Ser/Thr 07 in 50 mM HEPES pH 7.5, 0.01% BRIJ-35, 5 mM MgCl2, 5 mM MnCl2, 1 mM EGTA, 1 mM DTT, 0.01% NaN3. • 5. 30-second plate shake • 6. 60-minute Kinase Reaction incubation at room temperature • 7. 5 μL—Development Reagent Solution • 8. 30-second plate shake • 9. 60-minute Development Reaction incubation at room temperature • 10. Read on fluorescence plate reader and analyze the data

The test system of assay [1] is TLR- and IL-1R-dependent cytokine production. The assay is described as follows: Cell assays, average of IL-23 (THP-1), TNFα (PBMC), TNFα (DC). It is filed as cell-based. The note with it: Homo sapiens, average of the three cell assays. The source says:
To evaluate the effect of compound I-1 on TLR and IL-1R-dependent cytokine release, multiple cell types were isolated and stimulated in the presence of compound I-1 or Comparison-1.

Assay [2] has as its system LPS Induced TNF-α in Human Blood. Description: LPS induced TNF-α in human whole blood. It is filed as cell-based. Particulars: LPS 0.5 ng/ml overnight, read-out: Human Whole Blood Assays (IC5050), TNFα LPS. The procedure: To assess the effect of whole blood on the potency of compound I-1 and Comparison-1, the compounds were evaluated for their inhibitory potential on TLR dependent cytokine release in human blood. Freshly drawn peripheral blood from healthy volunteers was incubated with test compound and stimulated overnight with LPS or Gardiquimod. The serum was isolated after centrifugation and TNF-α and IL-6 were measured by ELISA.
Whole blood of healthy volunteers was collected in Vacutainer containing Sodium Heparin and plate 40 μL of blood to each well. Compound was serially diluted in DMSO from 2 mM in 3-fold dilutions, and then diluted 1:100 in media with 10% FBS. 50 μL of 2× compound was added per well in duplicate to each well and incubate for one hour. 10 μL LPS was added to each well at a final concentration of 0.5 ng/ml and allow cells to incubate overnight.
100 μL of PBS was added to each well and centrifuged for 10 minutes at 1000 RPM. 25 μL of supernatant were taken, and TNF-α was measured on Luminex Flexmap 3d.

A word on the EC50: it is the concentration at which the effect is half-maximal. A higher EC50 goes with weaker potency. `CCO[C@H]1CC[C@H](n2cc(NC(=O)c3csc(-c4cn[nH]c4)n3)c(-c3ncccn3)n2)CC1` [Compound I-1, N-(1-((1r,4r)-4-ethoxycyclohexyl)-3-(pyrimidin-2-yl)-1H-pyrazol-4-yl)-2-(1H-pyrazol-4-yl)thiazole-4-carboxamide]: a half-maximal effect at IRAK4 (EC50) was put at 6 nM. In addition, the IC50 came to 6 nM on IRAK4, 5 nM in assay [1] and 224 nM in assay [2].

Regarding `CCO[C@H]1CC[C@H](n2cc(NC(=O)c3csc(-c4cn[nH]c4)n3)c(-c3nc(F)ccc3F)n2)CC1` [Comparison-1, reference compound], the IC50 against IRAK4 worked out at 15 nM; in assay [1], 32 nM; in assay [2], 1400 nM.
